Measurements as given in patent US11884633B2, “Arylazole compound and pest control agent” (Nippon Soda Co., Ltd., priority 2015, dated 2024).

How the values were obtained:
Mythimna separata = assay: Test Example 1: efficacy test on Mythimna separata (artificial diet); type: in vivo; conditions: 0.8 g artificial diet mixed with 1 μl emulsion (I) (5% active ingredient); second instar larvae; 25° C.; fifth day
Procedure: (§1) 5 parts of the compound of the present invention, 93.6 parts of dimethylformamide, and 1.4 parts of polyoxyethylene alkylaryl ether were mixed and dissolved to prepare an emulsion (I) with 5% the active ingredient.
(§2) The insecticidal rate and the control rate were calculated by the following Equation. Insecticidal rate (%)=(number of dead insects/number of test insects)×100 Control rate={1−(Nt)/(Nc)}×100
0.8 g of commercially available artificial diet (Insector LFS, manufactured by Nosan Corp.) and Emulsion (I) 1 μl were well mixed and 0.2 g per each treatment group was packed in a plastic test container (1.4 ml) to prepare test feed. Two Mythimna separata second instar larvae were inoculated into each treatment group and sealed with a plastic lid. The container was placed in a thermostatic chamber at 25° C., and the insecticidal rate and food intake were examined on the fifth day. The test was performed twice. Further, a test conducted under the same conditions except that the compound of the present invention was removed from the emulsion (I) was performed as a vehicle control group.

Aphis gossypii = assay: Test Example 11: efficacy test on Aphis gossypii (rooting treatment test); type: in vivo; conditions: 8 ppm; hydroponic culture of cucumber seedlings (root treatment); 6 days
Procedure: as §1, §2
The cucumber seedlings raised in a small pot were drawn out from the small pot, the soil adhering to the root portion was washed off with tap water, and the root portion was dipped in tap water and hydroponically cultivated. Cucumber seedlings were inoculated with Aphis gossypii […]. Emulsion (I) was diluted with water to obtain a diluted solution having a concentration of the compound of the present invention of 8 ppm. The tap water was replaced with the diluent and the hydroponic culture with the diluent was continued in a thermostatic chamber at a temperature of 25° C. and a humidity of 60%. When 6 days passed from the start of hydroponic culture with the diluent, life and death determination on Aphis gossypii was performed and the insecticidal rate was calculated. The test was performed twice.

housefly = assay: Test Example 12: efficacy test on housefly; type: in vivo; conditions: 100 ppm on cubic sugar; female adults; 25° C.; 24 hours
Procedure: as §2
The compound of the present invention was diluted with acetone and added dropwise to 1 g of cubic sugar such that the concentration was set to be 100 ppm. The cubic sugar was placed in a plastic cup, and ten housefly female adults were released and capped. After storage at 25° C. and 24 hours passing from releasing, life and death determination was performed and the insecticidal rate was calculated. The test was performed twice.

Rhipicephalus microplus = assay: Test Example 17: contact effect test on Rhipicephalus microplus; type: in vivo; conditions: 100 ppm test solution; larvae; 24 hours after treatment
Procedure: as §2
A DMSO solution of the compound of the present invention was diluted with water to obtain a test solution at 100 ppm. This drug solution was dropped into a container containing 20 larvae of Rhipicephalus microplus and incubated in a thermostatic chamber at a temperature of 28° C. and a humidity of 80%. The larvae's life and death were determined 24 hours after the drug treatment. The test was performed twice.

Ornithodoros moubata = assay: Test Example 16: feeding effect test on Ornithodoros moubata; type: in vivo; conditions: 10 ppm in defibrin blood of sheep; tritonymphs; 14 days after blood sucking
Procedure: as §2
A DMSO solution of the compound of the present invention was mixed with the defibrin blood of sheep to obtain a mixed solution of 10 ppm. 2 ml of this mixed solution was placed in a container and capped with a parafilm membrane. In addition, 20 tritonymphs of Ornithodoros moubata were released and allowed to suck the blood through a parafilm membrane for about 30 minutes. The nymphs were transferred to a storage container and incubated in a thermostatic chamber at a temperature of 28° C. and a humidity of 80%, and the life and death and developmental stage were observed 14 days after blood sucking. The test was performed twice.

Lucilia cuprina larvae = assay: Test Example 18: contact/feeding effect test on Lucilia cuprina larvae; type: in vivo; conditions: 1000 ppm in horse meat, 48 hours
Procedure: as §2
A DMSO solution of the compound of the present invention was mixed with horse meat to obtain a mixture of 1000 ppm. 20 Lucilia cuprina larvae were introduced into the test tube with the mixture. The mixture was incubated in a thermostatic chamber at a temperature of 28° C. and a humidity of 80%, and the larvae's life and death were determined 48 hours after the start of the test. The test was performed twice.

Aedes aegypti larvae = assay: Test Example 19: contact/feeding effect test on Aedes aegypti larvae; type: in vivo; conditions: final concentration 10 ppm; first instar larvae; 48 hours
Procedure: as §2
A DMSO solution of the compound of the present invention was diluted with water to obtain a diluted solution of 100 ppm. 10 Aedes aegypti first instar larvae were placed in each well of a 96-well microtiter plate together with breeding water, 1/10 of 100 ppm diluted solution were added and tested at a final concentration of 10 ppm. The mixture was incubated in a thermostatic chamber at a temperature of 28° C. and a humidity of 80%, and the larvae's life and death were determined for 48 hours after the drug treatment. The test was performed twice.

Plutella xylostella = assay: Test Example 13: efficacy test on Plutella xylostella (soil immersion test); type: in vivo; conditions: 500 ppm, 10 ml soil irrigation of chingengsai seedlings; adults released after 7 days; counted 7 days after release
Procedure: as §1, §2
Nt: Number of parasites in spray treatment group
Nc: Number of parasites in untreated group
Emulsion (I) was diluted with water such that the concentration of the compound of the present invention was set to be 500 ppm to obtain a test solution. 10 ml of the test solution was irrigated to the stocker at chingengsai seedlings (seventh true leaf development stage) planted in a small pot and placed in a greenhouse at 25° C. for 7 days. Chingengsai seedlings were transferred into glass greenhouse and 300 adults of Plutella xylostella per 50 chingengsai were released in glass greenhouse. When 7 days passed after release, the number of surviving Plutella xylostella infested in Chingengsai seedlings was counted and the control rate was calculated. The test was performed twice.

CCS(=O)(=O)c1cc(C(F)(F)F)cnc1-n1ncc(C=C(Cl)C(F)(F)F)c1C (mixture of isomers) [10-2]
feeding amount in comparison with the vehicle control group (Mythimna separata): ≤ 10%

CCS(=O)(=O)c1cccnc1-n1ncc(C=C(Cl)C(F)(F)F)c1C (mixture of isomers) [10-3]
feeding amount in comparison with the vehicle control group (Mythimna separata): ≤ 10%

CCS(=O)(=O)c1ccc(-n2cncn2)nc1-n1ncc(C=C(Cl)C(F)(F)F)c1C (mixture of isomers) [10-4]
feeding amount in comparison with the vehicle control group (Mythimna separata): ≤ 10%

CCS(=O)(=O)c1cc(C(F)(F)F)ccc1-c1ncc(C=C(Cl)C(F)(F)F)n1C [1-1, 5-(2-Chloro-3,3,3-trifluoroprop-1-en-1-yl)-2-(2-(ethylsulfonyl)-4-(trifluoromethyl)phenyl)-1-methyl-1H-imidazole]
insecticidal rate (Aphis gossypii): ≥ 80% | insecticidal rate (housefly): ≥ 80% | insecticidal rate (Rhipicephalus microplus): ≥ 90% | insecticidal rate (Ornithodoros moubata): ≥ 90% | insecticidal rate (Lucilia cuprina larvae): ≥ 90% | insecticidal rate (Aedes aegypti larvae): ≥ 90% | control rate (Plutella xylostella): ≥ 80%

CCS(=O)(=O)c1cc(C(F)(F)F)ccc1-c1ncc(/C=C/C(F)(F)F)n1C [1-10]
feeding amount in comparison with the vehicle control group (Mythimna separata): ≤ 10%

CCS(=O)(=O)c1ccc(-n2cncn2)nc1-c1ncc(C=C(Cl)C(F)(F)C(F)(F)F)n1C [4-10]
feeding amount in comparison with the vehicle control group (Mythimna separata): ≤ 10%

CCS(=O)(=O)c1ccc(-n2cncn2)nc1-n1ncc(C=C(Cl)C(F)(F)C(F)(F)F)c1C [10-5]
feeding amount in comparison with the vehicle control group (Mythimna separata): ≤ 10%

CCSc1cccnc1-n1ncc(C=C(Cl)C(F)(F)C(F)(F)F)c1C [10-6]
feeding amount in comparison with the vehicle control group (Mythimna separata): ≤ 10%

CCS(=O)(=O)c1cccnc1-n1ncc(C=C(Cl)C(F)(F)C(F)(F)F)c1C [10-7]
feeding amount in comparison with the vehicle control group (Mythimna separata): ≤ 10%

CCS(=O)(=O)c1ccc(-n2cnc(N)n2)nc1-n1ncc(C=C(Cl)C(F)(F)C(F)(F)F)c1C [10-10]
feeding amount in comparison with the vehicle control group (Mythimna separata): ≤ 10%

CCS(=O)(=O)c1ccc(-n2ncnc2N)nc1-n1ncc(C=C(Cl)C(F)(F)C(F)(F)F)c1C [10-11]
feeding amount in comparison with the vehicle control group (Mythimna separata): ≤ 10%

CCS(=O)(=O)c1cc(C(F)(F)F)ccc1-n1ncc(C(=O)On2nnc3ccccc32)c1C [15-2]
melting point: 211 to 215 °C

CCSc1cc(C(F)(F)F)ccc1-c1ncc(C(=O)N2CC(F)(F)C(F)(F)C2)n1C [15-3]
melting point: 155 to 156 °C
